Source: patent US10550094B2, “Compounds having antioxidant activity against free radicals and anti-inflammatory activity, and corresponding pharmaceutical or cosmetic compositions for skin care” (GIULIANI S.P.A., priority 2015, dated 2020)

Experiments:
[1] = system: human keratinocytes NCTC2544; experiment: MTT assay with induced oxidative stress (H2O2); type: cell-based; settings: 16 h pretreatment, then 1 mM H2O2, NCTC2544
Method: (§1) The immortalized line of human keratinocytes NCTC2544 is used (Perry V. P. et al., 1957), cultured in sterile flasks ([…]), incubated at 37° C. in a humid atmosphere at 5% CO2 in RPMI culture medium added with bovine fetal serum (FBS), 2 mm glutamine, 1% non-essential amino acids, in the presence of 1% penicillin and streptomycin. The 1:3 split is done every 2 days upon achieving the monolayer by washing with 1×PBS (phosphate buffer without Ca^2+ and Mg^2+) and detachment of cells with a trypsin-EDTA solution at 37° C. for 2 minutes. The cells were kept in culture in 25 cm^3 sterile flasks and incubated at 37° C. in a humid atmosphere at 5% CO2.
(§2) Negative control: untreated cells in RPMI medium added to 2.5% fetal bovine serum (FBS), 1% non-essential amino acids (NEAA), 1% of a penicillin and streptomycin mixture (Pen-Strep Mix), and kept in (96 well) 25 cm^2 culture plates at 37° C. and 5% CO2 (in the dark).
as §2, with “Positive” for “Negative”, “control:” for “control: untreated”, “cells treated for 2 h with 1 mM hydrogen peroxide” for “cells”
MTT with Induced Oxidative Stress-NCTC 2544
Through this method it is possible to study the protective effects of such compounds on cells then subjected to oxidative stress. The induction of oxidative stress is carried out by incubation with hydrogen peroxide, an agent inducing the production of oxidative damage in cells through the formation of ROS. Any protective effects can be determined through the evaluation of the cell viability post oxidative stress of cells pretreated/pre-exposed to the active compounds to be tested, compared to cells subjected to the same oxidative stress. A greater cell viability will correspond to a protective effect of the compounds tested.
The assay was conducted in accordance with the method described by Coda and collaborators (Coda et al., 2012), with some changes. Human keratinocytes NCTC2544 were seeded in a 96-well plate at the density of 5*10^4 cells/well and incubated at 37° C. until reaching about 80% confluence.
Then, the cells were incubated for 16 hours with the active compounds to be tested and the respective controls at the following concentrations: 13.5 μM and 27 μM. The dilutions were prepared starting from 1000× stock in DMSO, sterile-filtered and using RPMI medium added to 2.5% fetal bovine serum (FBS), 1% non-essential amino acids (NEAA), 1% of a penicillin and streptomycin mixture (Pen-Strep Mix). Cells treated with H2O2 1 mM were used as a positive control; cells kept in culture medium alone (RPMI 2.5% FCS) were used instead as a negative control. After 16 hours of pretreatment, the cells were washed with PBS 1× and incubated for 90 minutes with a […] H2O2 solution (Sigma-Aldrich, St. Louis, Mo., USA) in serum-free medium, in the dark, at 37° C. and 5% CO2.
After the step of induction of the oxidative stress, the cell viability of the samples of the above compounds of the invention was evaluated in accordance with the method described by Mosmann T. Rapid colorimetric assay for cellular growth and survival: application to proliferation and cytotoxicity assays. J Immunol Methods. 1983 Dec. 16; 65(1-2):55-63.
The data were expressed as percentage of cell viability compared with control cells (ctr) not stressed, according to the following formula: % cell viability/ctr=(Abs sample/Abs ctr)·100
All the assays were performed at least two times in duplicate.

fillagrin (FLG) = experiment: Skin barrier function protection: filaggrin (FLG) gene expression by qRT-PCR in LPS-treated keratinocytes; type: cell-based, human; settings: 13.5 μM, with LPS, Control + LPS = 1.000
Method: as §1
Negative control: untreated cells in RPMI medium added to 2.5% fetal bovine serum (FBS), 1% non-essential amino acids (NEAA), 1% of a penicillin and streptomycin mixture (Pen-Strep Mix), and kept in (12 well) 25 cm^2 culture plates at 37° C. and 5% CO2.
Positive control: cells in RPMI medium added to 2.5% fetal bovine serum (FBS), 1% non-essential amino acids (NEAA), 1% of a penicillin and streptomycin mixture (Pen-Strep Mix) and 10 μg/mL LPS (lipopolysaccharide) and kept in ([…]) 25 cm^2 culture plates at 37° C. and 5% CO2 (in the dark).
Study of the Skin Barrier Function Protection
The gene expression of the involucrin (IVL) and fillagrin (FLG) markers was evaluated by relative quantitative RT-PCR (quantitative reverse transcription-polymerase chain reaction-qRT-PCR).
This assay involved three sequential steps: • extraction of total RNA; • retrotranscription in cDNA; • qRT-PCR.
Human keratinocytes NCTC2544 were seeded in 12-well plates at the density of 0.5*10^6 cells/well and incubated until reaching about 80% confluence.
Then, the cells were incubated for 16 and 24 hours with the active compounds to be tested and the respective controls at the following concentrations: 13.5 and 27 μM, and admixed (in the well) with 10 μg/ml LPS.
The dilutions were prepared starting from 1000× stock in DMSO, sterile-filtered and using RPMI medium added to 2.5% fetal bovine serum (FBS), 1% non-essential amino acids (NEAA), 1% of a penicillin and streptomycin mixture (Pen-Strep Mix).
Cells kept in the culture medium alone (RPMI 2.5% FBS) were used as a negative control.
Cells in the culture medium alone (RPMI 2.5% FBS) and treated only with 10 μg/mL LPS were used as a positive control.
After incubation, the RNA was extracted. Total RNA was extracted from NCTC 2544 cells using the commercial kit Ribospin™ (GeneAllBiotechnology Co., LTD).
For RT-PCR amplification, the TaqMan® probe (AppliedBiosystems) method was used. The following TYaqMan probe was used: Hs00846307_s1 (IVL) and Hs00863478_g1 (FLG).
GAPDH: Hs99999905_m1 was used as control gene (housekeeping).
The data obtained were analyzed according to the method of 2-ΔΔCt and so it was possible to calculate the relative values of expression of the gene of interest, normalized compared to the housekeeping gene and calibrated on the control sample (untreated cells): ΔΔCt=ΔCttarget-housekeeping (control)−ΔCttarget-housekeeping (treated cells)
The 2^−ΔΔCt was calculated assuming an amplification efficiency of 100%.

Row | SMILES | % protection ([1]; 13.5 μM) [%] | % protection ([1]; 13.5 μM, listed as xylitil furfural) | % protection ([1]; 27 μM) [%] | (FLG) 16 h RQ ± SEM (fillagrin (FLG)) | % protection ([1]; 27 μM, listed as tetracetyl sorbityl furfural)
1 | OCC1OC(c2ccco2)OC(CO)C1O (centres unmarked) [Xylitil furfural, xylitil furfural] | 59.554 | remarkable | 33.651 | 64.669 ± 6.930 | 
2 | CC(=O)OCC1OC(c2ccco2)OC(C(COC(C)=O)OC(C)=O)C1OC(C)=O (centres unmarked) [Tetracetyl sorbityl furfural, tetracetyl sorbityl furfural] | 34.385 |  | 49.201 | 11.158 ± 5.679 | remarkable
3 | OCC(O)C1OC(c2ccccc2)OC(CO)C1O (centres unmarked) [Sorbityl benzal, sorbityl benzal] | 11.673 |  | 20.439 | 16.971 ± 2.987 | 
4 | O=C(OCC1OC(c2ccco2)OC(C(COC(=O)c2ccccc2)OC(=O)c2ccccc2)C1OC(=O)c1ccccc1)c1ccccc1 (centres unmarked) [Tetrabenzoyl sorbityl furfural, tetrabenzoyl sorbityl furfural] | 36.035 |  | 8.725 | 22.864 ± 7.892 | 
5 | COc1cc(C2OC(CO)C(O)C(C(O)CO)O2)ccc1O (centres unmarked) [Sorbityl vanillinal, sorbityl vanillinal] | 11.320 |  | 22.766 | 4.408 ± 2.683 | 
